Results published in article PMC9313812, “The Pseudo‐Natural Product Rhonin Targets RHOGDI” (Angewandte Chemie (International Ed. in English), 2022).

How the values were obtained:
[1] = system: Shh-LIGHT2 cells; experiment: GLI-dependent reporter gene assay (RGA); type: cell-based; conditions: for Inhibition of GLI-dependent reporter gene expression (in words): Shh-LIGHT2 cells
Description: using a three-fold dilution series starting from a concentration of 30 μM. Half-maximal inhibitory concentrations (IC50) were calculated using the Quattro software suite (Quattro Research, Planegg, Germany) or GraphPad Prism 7 (GraphPad, USA). […]
GLI-dependent reporter gene assay
Shh-LIGHT2 cells were seeded (2.5×10^4 per well) in 96-well plates. After incubation for 16 h, medium was replaced by low serum-containing medium (0.5% FCS) supplemented with 1.5 μM purmorphamine and various concentrations of the compounds or DMSO as a control and cells were incubated for 48 h. […]

[2] = biological target: T1, RHOGDI1-RAC1 interaction (Homo sapiens, UniProt P52565); experiment: Surface plasmon resonance: RHOGDI1-mediated displacement of GerGer-RAC1-GDP from immobilized liposomes; type: biochemical; conditions: for Effect on kinetics of geranylgeranylated RAC1 extraction by RHOGDI1 (in words): SPR
T1 construct: GST; made in house; host or cells: RHOGDI1: E. coli; GerGer-RAC1: insect cells (TNAO38)
T1 sequence (P52565 1-204): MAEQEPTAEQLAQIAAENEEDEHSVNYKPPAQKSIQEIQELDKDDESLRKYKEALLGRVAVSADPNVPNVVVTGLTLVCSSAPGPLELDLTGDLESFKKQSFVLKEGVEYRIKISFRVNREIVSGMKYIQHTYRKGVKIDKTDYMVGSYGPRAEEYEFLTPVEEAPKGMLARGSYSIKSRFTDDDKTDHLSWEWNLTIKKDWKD
Description: RHOGDI1 displaced liposome -bound RAC1 from the surface of L1 chip with a koff of 0.016 […]
bound RAC1. Calculated rate constants by mono-exponential fitting of RU decays were 0.02 and 0.032 s-1 for RHOGDI1-mediated RAC1 displacement from the liposomes in the presence of 7a and 7d, respectively. (d) Competition-based fluorescence polarization experiments were performed by titration of 7a against 10 nM fluorescein-labelled atorvastatin and GST-PDEδ.
(e) Fluorescence polarization experiment using 10 nM probe 10 and titration of PDEδ.
(1 picture or pasted object on this page, not shown here)
Surface plasmon resonance (SPR)
Biacore® X100 instrument (Biacore, now GE Healthcare) was used to analyze the effect of 7a on the GerGer-RAC1-GDP and RHOGDI1 interaction. Liposomes suspended in SPR buffer (20 mM HEPES, pH 7.4, 50 mM NaCl, 5 mM MgCl2, 3 mM DTT) were immobilized by injecting 0.5 mM liposomes with flowrate of 5 µL/min on the surface of a Pioneer® L1 sensor chip (GE Healthcare) for the period of 900 s, as indicated by a constant signal. Unbound liposomes were removed by passing the buffer and 10 mM NaOH with flowrate of 5 µL/min for 30 s over the sensor chip. Buffer containing 15 µM GerGer-RAC1-GDP was passed with flowrate of 5 µL/min over the immobilized liposomes to facilitate the loading of GerGer-RAC1-GDP on to the liposomes. The effect of compounds on the association of GerGer-RAC1-GDP with liposomes and the resulting dissociation of GerGer-RAC1 upon passing 25 µM of RHOGDI1 was monitored by the change in the response unit signal.
Protein expression and purification
RHOGDI1 delta15, RHOGDI1 delta25, RHOGDI1-3 were produced in E. coli (XL1-Blue) as a GST recombinant protein as described previously.[9] In summary, protein were expressed in E.coli BL21 upon addition of IPTG overnight. Cell were collected and lysed in a lysis buffer, containing 30 mM Tris-NaOH pH 7.4, 150 mM NaCl, 1 mM DTT, and 5 mM MgCl2. Cells were further lysed using sonication. […]

Structure (SMILES) | IC50 ([1]; Shh Light2, Figure 2a, mean of three independent experiments) | Inhibition of GLI-dependent reporter gene expression (in words) [1] | Effect on kinetics of geranylgeranylated RAC1 extraction by RHOGDI1 (in words) [2] | Rate constant of RHOGDI1-mediated RAC1 displacement from liposomes in presence of compound ([2]; 25 µM RHOGDI1, mono-exponential fitting of RU decays)
COC(=O)C1(C(CC(=O)c2ccccc2)c2ccccc2)N=C(c2ccc(Br)cc2)C2C(=O)N(C)C(=O)C21 (stereo not drawn) [7a] | 1600 nM | did not inhibit | slowed down the kinetics | 
COC(=O)C1(CCC(=O)c2ccc(F)cc2)N=C(c2ccc(Br)cc2)C2C(=O)N(C)C(=O)C21 (stereo not drawn) [7d] |  |  | did not | 0.032 s⁻¹
COC(=O)C1(C(CC(=O)c2cccnc2)c2ccccc2)N=C(c2ccc(Br)cc2)C2C(=O)N(C)C(=O)C21 (stereo not drawn) [7l] |  | did not suppress |  | 
